Measurements taken from patent publication US11040962B2, “Pesticidally active pyrazole derivatives” (SYNGENTA PARTICIPATIONS AG, priority 2017, dated 2021).

Tests used:
Type in all cases: in vivo
Plutella xylostella = Plutella xylostella (diamond back moth) artificial diet test; details: 120 h, application rate 200 ppm, L2 larvae, 5 days after infestation, vs untreated, read-out: effect in at least one of the two categories (mortality or growth inhibition)
Experimental: Plutella xylostella (Diamond Back Moth):
24-well microtiter plates with artificial diet were treated with aqueous test solutions prepared from 10′000 ppm DMSO stock solutions by pipetting. After drying, the plates were infested with L2 larvae (10 to 15 per well). The samples were assessed for mortality and growth inhibition in comparison to untreated samples 5 days after infestation. The following compounds gave an effect of at least 80% in at least one of the two categories (mortality or growth inhibition) at an application rate of 200 ppm: 1, 2, 3, 4, 7, 8, 9, 10, 11, 12, 13, 14, 15, 16, 17, 18, 19, 20, 21, 22, 23, 24, 26, 27, 28 and 29.

Thrips tabaci = Thrips tabaci (onion thrips) sunflower leaf disc spray test; details: foliar, 144 h, application rate 200 ppm, population of mixed ages, 6 days after infestation
Experimental: Thrips tabaci (Onion Thrips):
(§1) Sunflower leaf discs were placed on agar in 24-well microtiter plates and sprayed with aqueous test solutions prepared from 10′000 ppm DMSO stock solutions. After drying the leaf discs were infested with a Thrips population of mixed ages. The samples were assessed for mortality 6 days after infestation.

Tetranychus urticae = Tetranychus urticae (two-spotted spider mite) bean leaf disc spray test; details: foliar, 192 h, application rate 200 ppm, 8 days after infestation, read-out: mortality on mixed population (mobile stages)
Experimental: Tetranychus urticae (Two-Spotted Spider Mite):
as §1, with “Bean” for “Sunflower”, “discs” for “discs were placed”, “were” for “and”, “mite” for “Thrips”, “on mixed population (mobile stages) 8” for “6”

Diabrotica balteata = Diabrotica balteata (corn root worm) maize sprout spray test; details: 96 h, application rate 200 ppm, L2 larvae, 4 days after infestation, vs untreated, read-out: effect in at least one of the two categories (mortality or growth inhibition)
Experimental: Diabrotica balteata, (Corn Root Worm)
Maize sprouts, placed on an agar layer in 24-well microtiter plates were treated with aqueous test solutions prepared from 10′000 ppm DMSO stock solutions by spraying. After drying, the plates were infested with L2 larvae (6 to 10 per well). The samples were assessed for mortality and growth inhibition in comparison to untreated samples 4 days after infestation. The following compounds gave an effect of at least 80% in at least one of the two categories (mortality or growth inhibition) at an application rate of 200 ppm: 1, 2, 3, 4, 7, 8, 9, 11, 12, 13, 14, 15, 16, 17, 18, 19, 20, 21, 27, 28 and 29.

Spodoptera littoralis = Spodoptera littoralis (Egyptian cotton leaf worm) cotton leaf disc spray test; details: foliar, 72 h, application rate 200 ppm, L1 larvae, 3 days after infestation, vs untreated, read-out: control (at least one of mortality, anti-feedant effect, growth inhibition)
Experimental: Spodoptera littoralis (Egyptian Cotton Leaf Worm)
Cotton leaf discs were placed on agar in 24-well microtiter plates and sprayed with aqueous test solutions prepared from 10′000 ppm DMSO stock solutions. After drying the leaf discs were infested with five L1 larvae. The samples were assessed for mortality, anti-feedant effect, and growth inhibition in comparison to untreated samples 3 days after infestation. Control of Spodoptera littoralis by a test sample is when at least one of mortality, anti-feedant effect, and growth inhibition is higher than the untreated sample.

Euschistus heros = Euschistus heros (neotropical brown stink bug) soybean leaf spray test; details: 120 h, application rate 200 ppm, N2 nymphs, 5 days after infestation, vs untreated, read-out: effect in at least one of the two categories (mortality or growth inhibition)
Experimental: Euschistus heros (Neotropical Brown Stink Bug)
Soybean leaves on agar in 24-well microtiter plates were sprayed with aqueous test solutions prepared from 10′000 ppm DMSO stock solutions. After drying the leaves were infested with N2 nymphs. The samples were assessed for mortality and growth inhibition in comparison to untreated samples 5 days after infestation. The following compounds gave an effect of at least 80% in at least one of the two categories (mortality or growth inhibition) at an application rate of 200 ppm: 1, 2, 3, 7, 8, 9, 12, 13, 14, 15, 17, 18, 21, 25, 26, 27, 28 and 29.

CN(C(=O)c1cc(-c2cn(-c3c(C(F)(F)F)c(C(F)(F)C(F)(F)F)nn3C)nn2)sc1C#N)C1CC1 [Compound 2, 2-cyano-N-cyclopropyl-N-methyl-5-[1-[2-methyl-5-(1,1,2,2,2-pentafluoroethyl)-4-(trifluoromethyl)pyrazol-3-yl]triazol-4-yl]thiophene-3-carboxamide]
≥ 80%: percent effect (mortality or growth inhibition) at 200 ppm (Plutella xylostella) | mortality at 200 ppm (Thrips tabaci) | mortality at 200 ppm (Tetranychus urticae) | percent effect (mortality or growth inhibition) at 200 ppm (Diabrotica balteata) | percent control (mortality, anti-feedant effect or growth inhibition) at 200 ppm (Spodoptera littoralis) | percent effect (mortality or growth inhibition) at 200 ppm (Euschistus heros)

CCN(C(=O)c1cc(-c2cn(-c3c(C(F)(F)F)c(C(F)(F)C(F)(F)F)nn3C)nn2)sc1C#N)C1CC1 [Compound 3, 2-cyano-N-cyclopropyl-N-ethyl-5-[1-[2-methyl-5-(1,1,2,2,2-pentafluoroethyl)-4-(trifluoromethyl)pyrazol-3-yl]triazol-4-yl]thiophene-3-carboxamide]
≥ 80%: percent effect (mortality or growth inhibition) at 200 ppm (Plutella xylostella) | mortality at 200 ppm (Thrips tabaci) | mortality at 200 ppm (Tetranychus urticae) | percent effect (mortality or growth inhibition) at 200 ppm (Diabrotica balteata) | percent control (mortality, anti-feedant effect or growth inhibition) at 200 ppm (Spodoptera littoralis) | percent effect (mortality or growth inhibition) at 200 ppm (Euschistus heros)

Cn1nc(C(F)(F)C(F)(F)F)c(C(F)(F)F)c1-n1cc(-c2cc(C(=O)NC3CC3)c(Cl)s2)nn1 [Compound 7, 2-chloro-N-cyclopropyl-5-[1-[2-methyl-5-(1,1,2,2,2-pentafluoroethyl)-4-(trifluoromethyl)pyrazol-3-yl]triazol-4-yl]thiophene-3-carboxamide]
≥ 80%: percent effect (mortality or growth inhibition) at 200 ppm (Plutella xylostella) | mortality at 200 ppm (Thrips tabaci) | mortality at 200 ppm (Tetranychus urticae) | percent effect (mortality or growth inhibition) at 200 ppm (Diabrotica balteata) | percent control (mortality, anti-feedant effect or growth inhibition) at 200 ppm (Spodoptera littoralis) | percent effect (mortality or growth inhibition) at 200 ppm (Euschistus heros)

Cn1nc(C(F)(F)C(F)(F)F)c(C(F)(F)F)c1-c1cc(-c2cc(C(=O)NC3CC3)c(C#N)s2)on1 [Compound 13, 2-cyano-N-cyclopropyl-5-[3-[2-methyl-5-(1,1,2,2,2-pentafluoroethyl)-4-(trifluoromethyl)pyrazol-3-yl]isoxazol-5-yl]thiophene-3-carboxamide]
≥ 80%: percent effect (mortality or growth inhibition) at 200 ppm (Plutella xylostella) | mortality at 200 ppm (Thrips tabaci) | mortality at 200 ppm (Tetranychus urticae) | percent effect (mortality or growth inhibition) at 200 ppm (Diabrotica balteata) | percent control (mortality, anti-feedant effect or growth inhibition) at 200 ppm (Spodoptera littoralis) | percent effect (mortality or growth inhibition) at 200 ppm (Euschistus heros)

CN(C(=O)c1cc(-c2cc(-c3c(C(F)(F)F)c(C(F)(F)C(F)(F)F)nn3C)no2)sc1C#N)C1CC1 [Compound 14, 2-cyano-N-cyclopropyl-N-methyl-5-[3-[2-methyl-5-(1,1,2,2,2-pentafluoroethyl)-4-(trifluoromethyl)pyrazol-3-yl]isoxazol-5-yl]thiophene-3-carboxamide]
≥ 80%: percent effect (mortality or growth inhibition) at 200 ppm (Plutella xylostella) | mortality at 200 ppm (Thrips tabaci) | mortality at 200 ppm (Tetranychus urticae) | percent effect (mortality or growth inhibition) at 200 ppm (Diabrotica balteata) | percent control (mortality, anti-feedant effect or growth inhibition) at 200 ppm (Spodoptera littoralis) | percent effect (mortality or growth inhibition) at 200 ppm (Euschistus heros)

CCN(C(=O)c1cc(-c2cc(-c3c(C(F)(F)F)c(C(F)(F)C(F)(F)F)nn3C)no2)sc1C#N)C1CC1 [Compound 15, 2-cyano-N-cyclopropyl-N-ethyl-5-[3-[2-methyl-5-(1,1,2,2,2-pentafluoroethyl)-4-(trifluoromethyl)pyrazol-3-yl]isoxazol-5-yl]thiophene-3-carboxamide]
≥ 80%: percent effect (mortality or growth inhibition) at 200 ppm (Plutella xylostella) | mortality at 200 ppm (Thrips tabaci) | mortality at 200 ppm (Tetranychus urticae) | percent effect (mortality or growth inhibition) at 200 ppm (Diabrotica balteata) | percent control (mortality, anti-feedant effect or growth inhibition) at 200 ppm (Spodoptera littoralis) | percent effect (mortality or growth inhibition) at 200 ppm (Euschistus heros)
